Data as given in US12522583B2, “Benzimidazole derivatives and aza-benzimidazole derivatives as Janus kinase 2 inhibitors and uses thereof” (Dana-Farber Cancer Institute, Inc., priority 2018, dated 2026).

Experiments:
Assay in all cases: KINOMEscan
Assay type in all cases: binding
FGFR3(G697C) = FGFR3(G697C) (Homo sapiens (Human), UniProt P22607, G697C); settings: read-out: percent control
From the text: (§1) Example 2. In Vitro Kinase Selectivity Profiling of the Compounds of the Present Disclosure

ZAK = ZAK (Homo sapiens (Human), UniProt Q9NYL2); settings: read-out: percent control
From the text: as §1

LRRK2(G20195) = LRRK2(G20195) (Homo sapiens (Human), UniProt Q5S007, G2019S); settings: read-out: percent control
From the text: as §1

[1] = molecular target: ABL1(H396P)-phosphorylated (Homo sapiens (Human), UniProt P00519, H396P); settings: read-out: percent control
From the text: as §1

EPHA6 = EPHA6 (Homo sapiens (Human), UniProt Q9UF33); settings: read-out: percent control
From the text: as §1

JNK3 = JNK3 (Homo sapiens (Human), UniProt P53779); settings: read-out: percent control
From the text: as §1

EGFR(S752-I759del) = EGFR(S752-I759del) (Homo sapiens (Human), UniProt P00533, DEL752-759); settings: read-out: percent control
Chain of EGFR(S752-I759del) (P00533 other isoform, or with tags, fused parts or gaps del 1-668/del 752-759/del 1012-1210 limits assumed): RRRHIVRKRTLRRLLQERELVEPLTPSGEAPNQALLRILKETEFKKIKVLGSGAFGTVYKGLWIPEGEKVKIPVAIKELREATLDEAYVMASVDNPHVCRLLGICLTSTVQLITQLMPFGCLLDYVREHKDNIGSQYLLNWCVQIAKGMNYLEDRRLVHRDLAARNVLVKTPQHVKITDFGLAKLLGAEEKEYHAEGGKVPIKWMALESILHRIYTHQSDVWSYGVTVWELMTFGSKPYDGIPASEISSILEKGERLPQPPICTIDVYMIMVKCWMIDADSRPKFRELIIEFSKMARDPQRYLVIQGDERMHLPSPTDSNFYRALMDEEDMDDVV
From the text: as §1

MKK7 = MKK7 (Homo sapiens (Human), UniProt O14733); settings: read-out: percent control
From the text: as §1

PIP5K2B = PIP5K2B (Homo sapiens (Human), UniProt P78356); settings: read-out: percent control
From the text: as §1

MAPKAPK2 = MAPKAPK2 (Homo sapiens (Human), UniProt P49137); settings: read-out: percent control
From the text: as §1

TTK = TTK (Homo sapiens (Human), UniProt P33981); settings: read-out: percent control
Chain of TTK (P33981 whole entry): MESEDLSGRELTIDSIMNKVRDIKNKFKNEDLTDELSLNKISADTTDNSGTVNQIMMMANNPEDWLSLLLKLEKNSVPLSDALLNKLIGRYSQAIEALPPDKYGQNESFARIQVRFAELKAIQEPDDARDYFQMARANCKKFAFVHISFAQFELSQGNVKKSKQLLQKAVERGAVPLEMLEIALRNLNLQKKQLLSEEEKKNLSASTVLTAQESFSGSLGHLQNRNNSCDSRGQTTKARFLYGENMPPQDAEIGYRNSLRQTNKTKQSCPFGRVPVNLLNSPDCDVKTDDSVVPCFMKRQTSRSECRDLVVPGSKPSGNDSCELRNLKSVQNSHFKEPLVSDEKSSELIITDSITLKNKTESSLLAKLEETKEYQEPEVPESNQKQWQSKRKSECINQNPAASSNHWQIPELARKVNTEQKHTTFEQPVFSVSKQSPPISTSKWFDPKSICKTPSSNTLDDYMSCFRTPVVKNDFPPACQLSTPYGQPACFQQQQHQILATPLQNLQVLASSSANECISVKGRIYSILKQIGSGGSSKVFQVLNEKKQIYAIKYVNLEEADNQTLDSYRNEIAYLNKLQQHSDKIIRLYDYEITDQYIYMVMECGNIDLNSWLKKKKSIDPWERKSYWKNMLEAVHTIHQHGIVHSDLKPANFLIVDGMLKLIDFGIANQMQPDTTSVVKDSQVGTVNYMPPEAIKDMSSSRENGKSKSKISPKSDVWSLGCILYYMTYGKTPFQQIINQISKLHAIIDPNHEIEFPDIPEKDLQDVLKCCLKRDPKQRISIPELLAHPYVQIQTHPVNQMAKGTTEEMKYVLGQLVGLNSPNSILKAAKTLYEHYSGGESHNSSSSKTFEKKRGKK
From the text: as §1

TLK2 = TLK2 (Homo sapiens (Human), UniProt Q86UE8); settings: read-out: percent control
From the text: as §1

NDR2 = NDR2 (Homo sapiens (Human), UniProt Q9Y2H1); settings: read-out: percent control
Chain of NDR2 (Q9Y2H1 whole entry): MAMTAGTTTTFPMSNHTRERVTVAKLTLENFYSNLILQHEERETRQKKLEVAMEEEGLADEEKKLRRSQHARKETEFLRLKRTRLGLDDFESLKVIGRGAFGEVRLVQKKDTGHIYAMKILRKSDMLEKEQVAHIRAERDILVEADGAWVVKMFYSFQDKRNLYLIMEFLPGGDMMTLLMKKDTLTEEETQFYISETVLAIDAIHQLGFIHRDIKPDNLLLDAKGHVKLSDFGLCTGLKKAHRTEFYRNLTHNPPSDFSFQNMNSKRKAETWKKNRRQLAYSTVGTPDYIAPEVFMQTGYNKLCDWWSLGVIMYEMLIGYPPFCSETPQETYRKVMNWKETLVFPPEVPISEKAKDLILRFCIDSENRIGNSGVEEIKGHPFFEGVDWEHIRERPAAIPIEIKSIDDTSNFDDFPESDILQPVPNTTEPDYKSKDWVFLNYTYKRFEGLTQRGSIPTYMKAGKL
From the text: as §1

YANK3 = YANK3 (Homo sapiens (Human), UniProt Q86UX6); settings: read-out: percent control
From the text: as §1

PIK3CD = PIK3CD (Homo sapiens (Human), UniProt O00329); settings: read-out: percent control
From the text: as §1

JNK2 = JNK2 (Homo sapiens (Human), UniProt P45984); settings: read-out: percent control
Chain of JNK2 (P45984 whole entry): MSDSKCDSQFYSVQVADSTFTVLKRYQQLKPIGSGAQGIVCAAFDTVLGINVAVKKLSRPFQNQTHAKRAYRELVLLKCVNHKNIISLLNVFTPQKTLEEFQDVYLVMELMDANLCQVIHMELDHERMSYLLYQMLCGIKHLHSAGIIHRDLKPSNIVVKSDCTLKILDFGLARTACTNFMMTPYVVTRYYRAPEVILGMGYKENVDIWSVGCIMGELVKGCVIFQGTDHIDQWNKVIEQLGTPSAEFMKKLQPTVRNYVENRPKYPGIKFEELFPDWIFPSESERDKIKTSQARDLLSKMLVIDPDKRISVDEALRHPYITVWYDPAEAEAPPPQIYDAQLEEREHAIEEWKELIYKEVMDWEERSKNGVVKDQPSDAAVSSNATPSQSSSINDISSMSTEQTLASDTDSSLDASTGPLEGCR
From the text: as §1

GRK3 = GRK3 (Homo sapiens (Human), UniProt P35626); settings: read-out: percent control
From the text: as §1

ROS1 = ROS1 (Homo sapiens (Human), UniProt P08922); settings: read-out: percent control
From the text: as §1

MET(Y1235D) = MET(Y1235D) (Homo sapiens (Human), UniProt P08581, Y1235D); settings: read-out: percent control
From the text: as §1

RET(V804M) = RET(V804M) (Homo sapiens (Human), UniProt P07949, V804M); settings: read-out: percent control
From the text: as §1

CAMKK2 = CAMKK2 (Homo sapiens (Human), UniProt Q96RR4); settings: read-out: percent control
From the text: as §1

MEK1 = MEK1 (Homo sapiens (Human), UniProt Q02750); settings: read-out: percent control
Chain of MEK1 (Q02750 whole entry): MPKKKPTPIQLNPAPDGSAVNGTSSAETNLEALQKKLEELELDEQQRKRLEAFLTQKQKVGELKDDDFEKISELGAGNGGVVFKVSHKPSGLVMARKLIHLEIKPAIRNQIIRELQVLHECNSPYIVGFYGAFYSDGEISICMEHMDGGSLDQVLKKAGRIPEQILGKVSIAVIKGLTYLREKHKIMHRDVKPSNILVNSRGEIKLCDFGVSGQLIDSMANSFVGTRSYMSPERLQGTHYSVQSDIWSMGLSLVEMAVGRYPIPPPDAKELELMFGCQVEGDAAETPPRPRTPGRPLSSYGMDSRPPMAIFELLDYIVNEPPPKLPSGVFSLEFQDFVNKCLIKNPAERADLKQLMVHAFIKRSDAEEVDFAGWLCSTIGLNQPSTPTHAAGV
From the text: as §1

TNIK = TNIK (Homo sapiens (Human), UniProt Q9UKE5); settings: read-out: percent control
From the text: as §1

RIOK3 = RIOK3 (Homo sapiens (Human), UniProt O14730); settings: read-out: percent control
From the text: as §1

MINK = MINK (Homo sapiens (Human), UniProt Q8N4C8); settings: read-out: percent control
From the text: as §1

TYRO3 = TYRO3 (Homo sapiens (Human), UniProt Q06418); settings: read-out: percent control
Chain of TYRO3 (Q06418 41-890): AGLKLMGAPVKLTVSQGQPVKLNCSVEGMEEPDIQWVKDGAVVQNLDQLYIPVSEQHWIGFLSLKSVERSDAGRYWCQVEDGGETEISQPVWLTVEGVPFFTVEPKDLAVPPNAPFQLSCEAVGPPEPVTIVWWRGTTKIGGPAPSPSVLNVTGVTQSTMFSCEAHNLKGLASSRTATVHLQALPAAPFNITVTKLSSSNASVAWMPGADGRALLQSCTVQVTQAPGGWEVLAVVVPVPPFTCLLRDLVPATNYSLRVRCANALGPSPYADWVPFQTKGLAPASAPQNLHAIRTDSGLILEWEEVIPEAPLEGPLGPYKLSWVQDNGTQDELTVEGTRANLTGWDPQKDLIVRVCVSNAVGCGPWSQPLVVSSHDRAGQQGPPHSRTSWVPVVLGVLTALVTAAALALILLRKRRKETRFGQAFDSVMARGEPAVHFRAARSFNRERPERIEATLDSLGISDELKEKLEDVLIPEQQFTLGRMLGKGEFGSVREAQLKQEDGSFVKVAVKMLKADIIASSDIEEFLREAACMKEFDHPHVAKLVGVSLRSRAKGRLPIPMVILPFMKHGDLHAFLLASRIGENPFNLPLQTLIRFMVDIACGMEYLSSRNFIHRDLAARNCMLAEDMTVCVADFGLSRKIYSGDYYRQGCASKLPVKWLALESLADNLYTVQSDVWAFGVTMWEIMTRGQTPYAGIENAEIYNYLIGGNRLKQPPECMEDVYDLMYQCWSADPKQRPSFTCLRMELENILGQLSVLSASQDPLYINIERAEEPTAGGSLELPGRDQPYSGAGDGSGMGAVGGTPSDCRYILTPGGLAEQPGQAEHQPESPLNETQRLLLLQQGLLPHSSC
From the text: as §1

ROCK2 = ROCK2 (Homo sapiens (Human), UniProt O75116); settings: read-out: percent control
From the text: as §1

ITK = ITK (Homo sapiens (Human), UniProt Q08881); settings: read-out: percent control
From the text: as §1

STK35 = STK35 (Homo sapiens (Human), UniProt Q8TDR2); settings: read-out: percent control
From the text: as §1

NLK = NLK (Homo sapiens (Human), UniProt Q9UBE8); settings: read-out: percent control
Chain of NLK (Q9UBE8 whole entry): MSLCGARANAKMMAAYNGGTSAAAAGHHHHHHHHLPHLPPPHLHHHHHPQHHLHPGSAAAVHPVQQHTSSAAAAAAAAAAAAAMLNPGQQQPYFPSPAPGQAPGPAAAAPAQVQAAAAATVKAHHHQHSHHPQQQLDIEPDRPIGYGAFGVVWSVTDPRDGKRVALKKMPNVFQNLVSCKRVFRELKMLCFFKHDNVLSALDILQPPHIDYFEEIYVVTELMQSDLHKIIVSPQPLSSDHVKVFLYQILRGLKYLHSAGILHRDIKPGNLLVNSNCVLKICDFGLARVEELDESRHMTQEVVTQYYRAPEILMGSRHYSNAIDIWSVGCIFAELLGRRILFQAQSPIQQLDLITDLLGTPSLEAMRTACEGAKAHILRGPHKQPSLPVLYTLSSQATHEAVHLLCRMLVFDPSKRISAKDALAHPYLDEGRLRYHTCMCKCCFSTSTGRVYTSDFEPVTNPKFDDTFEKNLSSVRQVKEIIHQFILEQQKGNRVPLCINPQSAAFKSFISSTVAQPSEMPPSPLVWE
From the text: as §1

MAST1 = MAST1 (Homo sapiens (Human), UniProt Q9Y2H9); settings: read-out: percent control
From the text: as §1

PRKG2 = PRKG2 (Homo sapiens (Human), UniProt Q13237); settings: read-out: percent control
Chain of PRKG2 (Q13237 whole entry): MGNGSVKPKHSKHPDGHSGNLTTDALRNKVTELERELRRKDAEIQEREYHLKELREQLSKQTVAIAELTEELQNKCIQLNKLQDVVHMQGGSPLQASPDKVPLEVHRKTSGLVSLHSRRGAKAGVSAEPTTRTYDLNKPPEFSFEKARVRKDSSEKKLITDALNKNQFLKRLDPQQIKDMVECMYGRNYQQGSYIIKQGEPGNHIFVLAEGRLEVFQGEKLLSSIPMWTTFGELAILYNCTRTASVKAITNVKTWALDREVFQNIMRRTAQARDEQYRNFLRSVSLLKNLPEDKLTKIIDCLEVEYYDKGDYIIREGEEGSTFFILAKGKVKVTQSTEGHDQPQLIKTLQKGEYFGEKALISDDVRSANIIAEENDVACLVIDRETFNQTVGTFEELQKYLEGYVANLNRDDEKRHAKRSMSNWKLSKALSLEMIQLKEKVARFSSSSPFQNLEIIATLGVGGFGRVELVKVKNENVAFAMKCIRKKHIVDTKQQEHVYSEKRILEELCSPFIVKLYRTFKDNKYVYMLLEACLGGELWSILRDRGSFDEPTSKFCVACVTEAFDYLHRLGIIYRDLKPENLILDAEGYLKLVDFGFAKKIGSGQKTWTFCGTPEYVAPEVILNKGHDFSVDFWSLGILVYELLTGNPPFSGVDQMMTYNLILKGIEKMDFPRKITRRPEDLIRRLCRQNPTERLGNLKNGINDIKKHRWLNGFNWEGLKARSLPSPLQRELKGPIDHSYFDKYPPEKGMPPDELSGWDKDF
From the text: as §1

MAPKAPK5 = MAPKAPK5 (Homo sapiens (Human), UniProt Q8IW41); settings: read-out: percent control
From the text: as §1

AXL = AXL (Homo sapiens (Human), UniProt P30530); settings: read-out: percent control
From the text: as §1

ULK2 = ULK2 (Homo sapiens (Human), UniProt Q8IYT8); settings: read-out: percent control
From the text: as §1

PKNB(M.tuberculosis) = PKNB(M.tuberculosis) (Mycobacterium tuberculosis (strain ATCC 25618 / H37Rv), UniProt P9WI81); settings: read-out: percent control
From the text: as §1

[2] = molecular target: TYK2(JH2domain-pseudokinase) (Homo sapiens (Human), UniProt P29597); settings: read-out: percent control
Chain of TYK2(JH2domain-pseudokinase) (P29597 589-875 limits assumed): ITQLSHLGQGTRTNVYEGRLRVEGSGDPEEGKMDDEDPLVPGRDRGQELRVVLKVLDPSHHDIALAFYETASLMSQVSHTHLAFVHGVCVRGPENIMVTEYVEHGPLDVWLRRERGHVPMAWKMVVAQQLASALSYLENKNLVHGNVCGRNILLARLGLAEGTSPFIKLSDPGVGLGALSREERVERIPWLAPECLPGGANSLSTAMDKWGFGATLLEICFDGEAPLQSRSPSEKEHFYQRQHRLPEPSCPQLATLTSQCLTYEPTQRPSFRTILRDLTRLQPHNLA
From the text: as §1

DCAMKL1 = DCAMKL1 (Homo sapiens (Human), UniProt O15075); settings: read-out: percent control
From the text: as §1

PLK2 = PLK2 (Homo sapiens (Human), UniProt Q9NYY3); settings: read-out: percent control
From the text: as §1

FLT3(ITD, D835V) = settings: 1 μM
From the text: as §1

SMILES	remaining binding at 1 µM (FGFR3(G697C)) [%]	remaining binding at 1 µM (ZAK) [%]	remaining binding at 1 µM (LRRK2(G20195)) [%]	remaining binding at 1 µM [1] [%]	remaining binding at 1 µM (EPHA6) [%]	remaining binding at 1 µM (JNK3) [%]	remaining binding at 1 µM (EGFR(S752-I759del)) [%]	remaining binding at 1 µM (MKK7) [%]	remaining binding at 1 µM (PIP5K2B) [%]	remaining binding at 1 µM (MAPKAPK2) [%]	remaining binding at 1 µM (TTK) [%]	remaining binding at 1 µM (TLK2) [%]	remaining binding at 1 µM (NDR2) [%]	remaining binding at 1 µM (YANK3) [%]	remaining binding at 1 µM (PIK3CD) [%]	remaining binding at 1 µM (JNK2) [%]	remaining binding at 1 µM (GRK3) [%]	remaining binding at 1 µM (ROS1) [%]	remaining binding at 1 µM (MET(Y1235D)) [%]	remaining binding at 1 µM (RET(V804M)) [%]	also measured
CCN1CCN(Cc2ccc(Nc3nc4ccc(Oc5ccnc(NC(C)=O)c5)cc4n3C)cc2C(F)(F)F)CC1 [Compound I-2]	98	25	100	45	100	100	100	80	57	78	75	98	62	100	72	85	100	73	71	9.9	remaining binding at 1 µM (CAMKK2): 100%; remaining binding at 1 µM (MEK1): 94%; remaining binding at 1 µM (TNIK): 53%; remaining binding at 1 µM (RIOK3): 22%; remaining binding at 1 µM (MINK): 92%; remaining binding at 1 µM (TYRO3): 100%; remaining binding at 1 µM (ROCK2): 100%; remaining binding at 1 µM (ITK): 97%; remaining binding at 1 µM (STK35): 100%; remaining binding at 1 µM (NLK): 84%; remaining binding at 1 µM (MAST1): 74%; remaining binding at 1 µM (PRKG2): 92%; remaining binding at 1 µM (MAPKAPK5): 99%; remaining binding at 1 µM (AXL): 86%; remaining binding at 1 µM (ULK2): 91%; remaining binding at 1 µM (PKNB(M.tuberculosis)): 80%; remaining binding at 1 µM [2]: 100%; remaining binding at 1 µM (DCAMKL1): 91%; remaining binding at 1 µM (PLK2): 94%; percent control (FLT3(ITD, D835V)): 100%
CCN1CCN(Cc2ccc(Nc3nc4ccc(Oc5ccnc(NC(C)=O)c5)c(C)c4n3C)cc2C(F)(F)F)CC1 [Compound I-6, N-(4-(2-(4-((4-ethylpiperazin-1-yl)methyl)-3-(trifluoromethyl)phenylamino)-1,7-dimethyl-1H-benzo[d]imidazol-6-yloxy)pyridin-2-yl)acetamide]	66	5.6	69	30	96	77	94	94	98	100	96	97	97	89	88	66	79	43	44	4.5	remaining binding at 1 µM (CAMKK2): 99%; remaining binding at 1 µM (MEK1): 87%; remaining binding at 1 µM (TNIK): 75%; remaining binding at 1 µM (RIOK3): 100%; remaining binding at 1 µM (MINK): 59%; remaining binding at 1 µM (TYRO3): 100%; remaining binding at 1 µM (ROCK2): 90%; remaining binding at 1 µM (ITK): 98%; remaining binding at 1 µM (STK35): 100%; remaining binding at 1 µM (NLK): 40%; remaining binding at 1 µM (MAST1): 100%; remaining binding at 1 µM (PRKG2): 93%; remaining binding at 1 µM (MAPKAPK5): 83%; remaining binding at 1 µM (AXL): 61%; remaining binding at 1 µM (ULK2): 100%; remaining binding at 1 µM (PKNB(M.tuberculosis)): 82%; remaining binding at 1 µM [2]: 76%; remaining binding at 1 µM (DCAMKL1): 69%; remaining binding at 1 µM (PLK2): 71%; percent control (FLT3(ITD, D835V)): 61%
